This assay has as its system telo24 DNA (DNA, G4) TTAGGGTTAGGGTTAGGGTTAGGG
Nature of the assay: UV-vis titration. Particulars: K+ 100 mM; 10 mM HEPES pH 7.4, 1 mM Na2EDTA; 5 μM porphyrin; error is SE.

On to `C[n+]1ccc(-c2c3nc(c(-c4cc[n+](C)cc4)c4ccc([nH]4)c(-c4cc[n+](C)cc4)c4nc(c(-c5cc[n+](C)cc5)c5ccc2[nH]5)C=C4)C=C3)cc1`, for which the Kd is given as 0.93 (0.18) μM.

(Values after article PMC12577588 (2025).)
